From ChEMBL document CHEMBL1201862, “PubChem BioAssay data set” (2004) come the findings set out here.

Active and inactive are the calls of the source. A value given as a limit tells only on which side of the number the result lay.

The AC50 is the concentration giving half of the maximal activity seen. As a reminder, the IC50 is the concentration needed to halve the response being measured. For orientation: CC50 means the concentration at which the toxic effect on the cells reaches its halfway point. Usually EC50 stands for the midpoint of the concentration-response curve.

The target in assay [1] is T1, Histone-lysine N-methyltransferase NSD2 (Homo sapiens, UniProt O96028).
T1 sequence (O96028 whole entry): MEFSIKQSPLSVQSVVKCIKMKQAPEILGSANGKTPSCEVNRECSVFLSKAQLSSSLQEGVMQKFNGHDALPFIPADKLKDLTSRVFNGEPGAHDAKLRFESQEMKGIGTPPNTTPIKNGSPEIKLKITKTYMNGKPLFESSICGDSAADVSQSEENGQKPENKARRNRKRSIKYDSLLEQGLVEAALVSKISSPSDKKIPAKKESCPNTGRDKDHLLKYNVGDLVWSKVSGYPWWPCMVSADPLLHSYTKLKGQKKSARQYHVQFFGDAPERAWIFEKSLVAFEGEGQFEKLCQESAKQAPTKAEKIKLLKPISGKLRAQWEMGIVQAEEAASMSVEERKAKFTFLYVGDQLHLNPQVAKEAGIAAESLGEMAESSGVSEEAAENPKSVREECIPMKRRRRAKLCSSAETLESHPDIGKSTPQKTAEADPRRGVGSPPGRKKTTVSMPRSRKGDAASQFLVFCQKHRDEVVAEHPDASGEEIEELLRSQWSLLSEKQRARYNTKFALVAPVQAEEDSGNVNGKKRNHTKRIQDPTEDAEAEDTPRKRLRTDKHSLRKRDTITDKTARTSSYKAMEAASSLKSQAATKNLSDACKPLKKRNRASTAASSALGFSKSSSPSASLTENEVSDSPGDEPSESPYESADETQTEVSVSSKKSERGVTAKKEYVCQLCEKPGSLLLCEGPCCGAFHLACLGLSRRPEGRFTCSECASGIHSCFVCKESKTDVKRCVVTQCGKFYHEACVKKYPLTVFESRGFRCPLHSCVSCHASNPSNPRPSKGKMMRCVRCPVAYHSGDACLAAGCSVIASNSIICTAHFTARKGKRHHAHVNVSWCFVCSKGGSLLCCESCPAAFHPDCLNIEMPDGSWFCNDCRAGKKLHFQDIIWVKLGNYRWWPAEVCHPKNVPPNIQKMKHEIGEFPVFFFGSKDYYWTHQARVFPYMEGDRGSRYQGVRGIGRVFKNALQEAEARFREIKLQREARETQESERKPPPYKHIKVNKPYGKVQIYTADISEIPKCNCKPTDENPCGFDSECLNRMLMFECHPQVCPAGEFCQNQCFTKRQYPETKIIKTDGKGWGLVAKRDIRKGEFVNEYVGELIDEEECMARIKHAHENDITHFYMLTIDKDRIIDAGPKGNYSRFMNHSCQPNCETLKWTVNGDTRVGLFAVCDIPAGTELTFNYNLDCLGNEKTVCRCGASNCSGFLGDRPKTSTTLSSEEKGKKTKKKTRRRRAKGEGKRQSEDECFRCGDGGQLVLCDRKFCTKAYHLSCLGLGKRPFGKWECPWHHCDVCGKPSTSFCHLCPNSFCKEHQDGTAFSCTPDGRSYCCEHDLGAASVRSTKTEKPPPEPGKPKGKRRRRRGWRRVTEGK
The assay is classed as biochemical.

The target in assay [2] is T2, Rac GTPase-activating protein 1 (Homo sapiens, UniProt Q9H0H5).
T2 sequence (Q9H0H5 whole entry): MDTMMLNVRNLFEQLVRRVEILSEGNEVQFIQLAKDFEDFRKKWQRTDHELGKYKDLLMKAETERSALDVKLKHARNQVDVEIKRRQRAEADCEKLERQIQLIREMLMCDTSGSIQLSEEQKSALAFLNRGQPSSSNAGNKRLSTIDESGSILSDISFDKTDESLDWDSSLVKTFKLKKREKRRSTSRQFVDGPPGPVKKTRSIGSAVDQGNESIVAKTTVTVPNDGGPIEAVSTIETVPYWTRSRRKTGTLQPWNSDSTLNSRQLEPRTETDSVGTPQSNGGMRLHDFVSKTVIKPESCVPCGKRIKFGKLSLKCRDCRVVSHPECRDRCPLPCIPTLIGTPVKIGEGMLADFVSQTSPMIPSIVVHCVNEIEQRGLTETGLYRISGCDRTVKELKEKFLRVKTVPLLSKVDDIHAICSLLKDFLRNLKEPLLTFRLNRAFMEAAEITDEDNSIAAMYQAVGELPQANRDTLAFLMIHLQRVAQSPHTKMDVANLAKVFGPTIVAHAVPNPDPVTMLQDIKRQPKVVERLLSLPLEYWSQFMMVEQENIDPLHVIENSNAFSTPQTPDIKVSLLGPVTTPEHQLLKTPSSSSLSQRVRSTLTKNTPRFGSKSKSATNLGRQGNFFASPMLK
Nature of the assay: blockers of MgcRacGAP-driven Rac1 GTP hydrolysis – biochemical, ADP Hunter fluorescence, primary and confirmatory, confirmation (AID 624330). The format is functional.

The target in assay [3] is 26S proteasome non-ATPase regulatory subunit 14 (Homo sapiens, UniProt O00487). Nature of the assay: inhibition of proteasome subunit RPN11 – biochemical, fluorescence polarization, uHTS hits, confirmation (AID 602368). The format is functional. On the technique in general: Fluorescence polarisation rises when a labelled molecule tumbles more slowly, as on binding a larger partner.

The target in another assay is T3, Aminopeptidase N (Plasmodium falciparum FcB1/Columbia, UniProt O96935).
T3 sequence (O96935 whole entry): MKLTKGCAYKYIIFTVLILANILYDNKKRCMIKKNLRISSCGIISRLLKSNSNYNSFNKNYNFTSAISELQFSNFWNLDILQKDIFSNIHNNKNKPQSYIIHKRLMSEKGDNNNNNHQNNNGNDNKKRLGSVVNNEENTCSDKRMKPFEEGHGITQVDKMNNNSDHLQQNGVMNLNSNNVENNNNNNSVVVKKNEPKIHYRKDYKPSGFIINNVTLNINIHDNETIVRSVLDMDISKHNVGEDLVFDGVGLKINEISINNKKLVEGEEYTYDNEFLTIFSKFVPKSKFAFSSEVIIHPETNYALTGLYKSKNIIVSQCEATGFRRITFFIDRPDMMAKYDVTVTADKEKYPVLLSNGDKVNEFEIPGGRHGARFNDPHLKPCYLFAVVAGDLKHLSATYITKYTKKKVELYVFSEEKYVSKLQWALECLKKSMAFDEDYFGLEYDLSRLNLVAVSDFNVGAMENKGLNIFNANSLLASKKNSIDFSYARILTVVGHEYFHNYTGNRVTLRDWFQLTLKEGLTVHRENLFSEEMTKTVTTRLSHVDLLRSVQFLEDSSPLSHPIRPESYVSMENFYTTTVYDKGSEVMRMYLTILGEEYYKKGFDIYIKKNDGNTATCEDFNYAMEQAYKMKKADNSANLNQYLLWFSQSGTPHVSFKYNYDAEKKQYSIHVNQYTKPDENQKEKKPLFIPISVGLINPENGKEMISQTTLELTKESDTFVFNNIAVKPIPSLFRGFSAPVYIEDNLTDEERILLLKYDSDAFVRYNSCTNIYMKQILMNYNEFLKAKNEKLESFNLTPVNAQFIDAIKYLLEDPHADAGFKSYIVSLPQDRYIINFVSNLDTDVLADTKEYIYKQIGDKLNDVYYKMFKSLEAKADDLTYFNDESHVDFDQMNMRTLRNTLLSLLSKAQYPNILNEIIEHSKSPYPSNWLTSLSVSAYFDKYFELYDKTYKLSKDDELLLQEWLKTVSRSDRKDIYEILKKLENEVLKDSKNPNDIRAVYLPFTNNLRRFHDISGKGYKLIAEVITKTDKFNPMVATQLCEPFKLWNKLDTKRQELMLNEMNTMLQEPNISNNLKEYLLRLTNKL
Nature of the assay: malaria alanyl aminopeptidase activity blockers – biochemical, fluorogenic H-Leu-NHMec substrate, 1536-well (AID 1445). More on the design: species or system Plasmodium falciparum 3D7, 3D7.

In assay [4] the target is Bifunctional protein GlmU (Mycobacterium tuberculosis, UniProt P9WMN3). Nature of the assay: Inhibitors of Mycobacterial Glucosamine-1-phosphate acetyl transferase (GlmU). Secondary screen. Also on record: species or system Mycobacterium tuberculosis H37Rv.
The target of assay [5] is 72 kDa type IV collagenase (Homo sapiens, UniProt P08253). Nature of the assay: Dose Response validation of uHTS RPN11 inhibitor hits using a MMP-2 Fluorescence assay. The assay is classed as functional.
Assay [6] addresses DNA (cytosine-5)-methyltransferase 1 (Homo sapiens, UniProt P26358). Nature of the assay: inhibition of DNA methylation by DNMT1 – biochemical, fluorescent molecular beacon, confirmation (AID 602386). The assay is classed as functional.
The target of a further assay is Prothrombin (Bos taurus, UniProt P00735). Nature of the assay: thrombin protease inhibitors – biochemical, fluorescence polarization, uHTS hits, dose response (AID 602369). The assay is classed as functional.
Assay [7] addresses Induced myeloid leukemia cell differentiation protein Mcl-1 (Homo sapiens, UniProt Q07820). The format is functional.
The target in assay [8] is Signal transducer and activator of transcription 1-alpha/beta (Homo sapiens, UniProt P42224). Nature of the assay: inhibition of STAT1 reporter activity – cell-based, NIH 3T3, luciferase reporter, dose response (AID 1396). The format is functional.
The nature of assay [9]: viability loss in THP-1 monocytes – THP-1 cells, cytotoxicity control for Vif-APOBEC3G degradation inhibitor project, dose response (AID 1117359). The assay is classed as functional. To be noted: THP-1.
Assay [10] deals with Glutathione-S-transferase (Schistosoma japonicum, UniProt Q26513). Nature of the assay: GST-antibody interaction or FRET quenching – biochemical, TR-FRET, artefact control for Vif-APOBEC3G degradation inhibitor project, dose response (AID 1117362). The format is functional. On the technique in general: In TR-FRET formats the signal depends on donor and acceptor labels being close together.

In another assay the target is Nonstructural protein 1 (Influenza A virus, UniProt Q194T2). The format is functional, Influenza A virus (A/California/07/2009(H1N1)).
The nature of assay [11]: viability of HCT116 lacking mutant beta-catenin – cell-based, human colon tumor, dose response (AID 1045).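 Further: HCT116 colon tumor cells with beta catenin knocked out; cells exposed to compound for 60 hours.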 The format is functional.
Assay [12] is described as follows: viability loss in HeLa cells – cytotoxicity control for MgcRacGAP inhibitor project, dose response (AID 624300). The format is functional.
Assay [13] is described as follows: viability of PTEN-deleted HCT116 cells – cell-based, HCT116 PTEN knockout, dose response (AID 1047).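 Further: HCT116 colon tumor cells with PTEN knocked out; cells exposed to compound for 60 hours before readout; potency for loss of cell viability measured by luminescence.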 The format is functional.
Assay [14] in a line: mitochondrial function rescue without frataxin homolog – Friedreich's ataxia, plus single-dose screen, dose response (AID 1465).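 Further: yeast depleted of Yfh1p frataxin homolog grown on glycerol needing respiration; WST-1 tetrazolium dye reduction as measure of cellular dehydrogenase metabolic activity.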 The format is functional.
A short description of assay [15]: growth inhibition of yeast DHODH-expressing 3D7 parasites – SYBR Green, dry powder samples, dose response (AID 1159570).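 Further: parasite growth measured after 72 hours of compound exposure.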 The format is functional, cell-based.
The nature of assay [16]: growth inhibition of PfATP4-mutant resistant parasites – NITD609-resistant line, SYBR Green, dry powder, dose response (AID 1159571).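 Further: parasites synchronized at ring stage by sorbitol before testing.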 The format is functional, cell-based.
A short description of assay [17]: P. falciparum Dd2 growth inhibitors, dose response, SYBR Green, cherry-picked samples (AID 1159567). The assay is classed as functional, cell-based.
Assay [18] is described as follows: Plasmodium falciparum Dd2 Sybr green parasite growth Measured in Cell-Based and Microorganism Combination System Using Plate Reader - 2153-01_Inhibitor_Dose_DryPowder_Activity_Set3. The format is functional.
A short description of assay [19]: toxicity to human hepatoma HepG2 cells – cell-based, cherry-picked samples, cytotoxicity control, dose response (AID 1159577). The format is functional.
The nature of assay [20]: toxicity to human HepG2 hepatoma cells – cell-based, plate reader, dry powder samples, cytotoxicity control, dose response (AID 1159569).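 Further: inhibitor potency with signal falling toward the positive control level.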 The assay is classed as functional.
A short description of assay [21]: Dd2 malaria parasite growth inhibition potency – SYBR Green, dry powder samples, dose response (AID 1159566).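 Further: potency for growth inhibition with lower SYBR green DNA signal.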 The assay is classed as functional, cell-based.
Assay [22] addresses RNA-editing ligase 1, mitochondrial (Trypanosoma brucei brucei, UniProt P86926). Nature of the assay: inhibition of trypanosome RNA editing ligase – biochemical, fluorescence, Trypanosoma brucei, dose response (AID 1117295). The assay is classed as functional.

Chain of Bifunctional protein GlmU (P9WMN3 whole entry): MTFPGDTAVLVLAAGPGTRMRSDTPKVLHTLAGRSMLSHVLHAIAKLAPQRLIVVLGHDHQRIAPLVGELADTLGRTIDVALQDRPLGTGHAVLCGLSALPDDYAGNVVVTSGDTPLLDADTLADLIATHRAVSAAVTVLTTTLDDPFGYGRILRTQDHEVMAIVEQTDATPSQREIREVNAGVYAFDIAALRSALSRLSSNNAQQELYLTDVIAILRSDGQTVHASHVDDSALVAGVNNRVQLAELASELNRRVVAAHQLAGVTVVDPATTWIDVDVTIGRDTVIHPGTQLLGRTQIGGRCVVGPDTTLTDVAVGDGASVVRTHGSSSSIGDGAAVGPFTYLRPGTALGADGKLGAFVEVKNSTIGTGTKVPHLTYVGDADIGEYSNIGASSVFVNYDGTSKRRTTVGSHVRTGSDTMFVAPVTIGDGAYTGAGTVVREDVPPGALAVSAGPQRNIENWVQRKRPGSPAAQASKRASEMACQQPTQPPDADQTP
Chain of Signal transducer and activator of transcription 1-alpha/beta (P42224 whole entry): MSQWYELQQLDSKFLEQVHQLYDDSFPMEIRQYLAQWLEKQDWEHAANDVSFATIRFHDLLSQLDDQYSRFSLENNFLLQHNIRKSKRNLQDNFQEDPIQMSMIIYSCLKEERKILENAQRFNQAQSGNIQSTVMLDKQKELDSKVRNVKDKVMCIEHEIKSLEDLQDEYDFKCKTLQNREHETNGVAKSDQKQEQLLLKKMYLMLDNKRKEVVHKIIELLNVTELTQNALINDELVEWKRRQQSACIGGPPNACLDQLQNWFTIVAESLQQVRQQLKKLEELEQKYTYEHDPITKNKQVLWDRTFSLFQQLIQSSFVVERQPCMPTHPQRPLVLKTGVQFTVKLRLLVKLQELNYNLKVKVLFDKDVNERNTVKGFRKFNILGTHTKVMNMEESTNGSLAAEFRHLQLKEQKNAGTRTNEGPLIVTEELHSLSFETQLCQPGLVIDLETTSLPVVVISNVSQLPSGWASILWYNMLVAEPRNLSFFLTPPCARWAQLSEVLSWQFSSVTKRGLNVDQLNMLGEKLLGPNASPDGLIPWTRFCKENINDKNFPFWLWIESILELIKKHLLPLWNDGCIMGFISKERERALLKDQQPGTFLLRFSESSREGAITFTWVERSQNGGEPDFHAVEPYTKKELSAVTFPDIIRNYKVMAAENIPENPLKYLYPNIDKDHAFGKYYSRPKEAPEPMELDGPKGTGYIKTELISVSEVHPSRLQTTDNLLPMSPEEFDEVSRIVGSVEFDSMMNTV
Chain of DNA (cytosine-5)-methyltransferase 1 (P26358 whole entry): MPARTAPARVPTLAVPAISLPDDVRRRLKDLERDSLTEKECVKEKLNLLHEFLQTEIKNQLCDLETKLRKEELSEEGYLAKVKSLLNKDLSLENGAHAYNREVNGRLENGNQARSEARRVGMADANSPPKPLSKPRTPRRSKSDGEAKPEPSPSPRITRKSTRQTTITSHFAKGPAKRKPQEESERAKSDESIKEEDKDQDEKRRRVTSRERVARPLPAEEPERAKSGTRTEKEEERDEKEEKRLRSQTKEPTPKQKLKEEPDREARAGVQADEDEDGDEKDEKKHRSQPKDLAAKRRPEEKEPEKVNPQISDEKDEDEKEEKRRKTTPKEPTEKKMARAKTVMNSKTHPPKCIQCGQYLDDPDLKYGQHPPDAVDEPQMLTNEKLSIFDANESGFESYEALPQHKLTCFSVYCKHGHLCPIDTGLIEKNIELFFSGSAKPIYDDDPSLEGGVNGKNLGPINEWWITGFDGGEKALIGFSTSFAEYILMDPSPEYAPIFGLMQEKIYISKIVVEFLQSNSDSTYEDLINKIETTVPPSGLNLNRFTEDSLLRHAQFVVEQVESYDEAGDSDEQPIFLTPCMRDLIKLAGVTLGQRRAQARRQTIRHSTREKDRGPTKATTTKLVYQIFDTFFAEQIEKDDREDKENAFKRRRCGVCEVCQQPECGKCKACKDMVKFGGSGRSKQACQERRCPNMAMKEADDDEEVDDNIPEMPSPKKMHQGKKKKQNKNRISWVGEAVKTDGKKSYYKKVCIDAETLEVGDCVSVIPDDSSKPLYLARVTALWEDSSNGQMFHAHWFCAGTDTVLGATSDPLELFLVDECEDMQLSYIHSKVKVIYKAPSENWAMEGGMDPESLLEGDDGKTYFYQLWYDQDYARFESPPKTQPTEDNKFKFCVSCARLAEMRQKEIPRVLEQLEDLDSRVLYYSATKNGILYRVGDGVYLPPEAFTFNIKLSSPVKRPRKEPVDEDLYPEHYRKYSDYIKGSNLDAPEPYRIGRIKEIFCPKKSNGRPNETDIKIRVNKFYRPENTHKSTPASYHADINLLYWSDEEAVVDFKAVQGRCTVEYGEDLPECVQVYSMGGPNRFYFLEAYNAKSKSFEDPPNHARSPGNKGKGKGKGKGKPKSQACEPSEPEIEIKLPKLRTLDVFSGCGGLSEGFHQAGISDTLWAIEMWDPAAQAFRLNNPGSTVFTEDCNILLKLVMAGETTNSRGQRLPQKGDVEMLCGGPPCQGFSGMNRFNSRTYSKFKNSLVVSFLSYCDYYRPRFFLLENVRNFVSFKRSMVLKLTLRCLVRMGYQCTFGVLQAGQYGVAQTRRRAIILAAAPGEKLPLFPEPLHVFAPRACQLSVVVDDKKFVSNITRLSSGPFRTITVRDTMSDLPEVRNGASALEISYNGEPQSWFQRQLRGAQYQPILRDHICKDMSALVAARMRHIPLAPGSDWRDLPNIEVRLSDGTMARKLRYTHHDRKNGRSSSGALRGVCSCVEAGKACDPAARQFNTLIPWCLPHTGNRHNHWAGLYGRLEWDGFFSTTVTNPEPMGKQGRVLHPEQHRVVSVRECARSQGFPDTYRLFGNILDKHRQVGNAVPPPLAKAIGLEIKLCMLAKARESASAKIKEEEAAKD
Chain of 26S proteasome non-ATPase regulatory subunit 14 (O00487 whole entry): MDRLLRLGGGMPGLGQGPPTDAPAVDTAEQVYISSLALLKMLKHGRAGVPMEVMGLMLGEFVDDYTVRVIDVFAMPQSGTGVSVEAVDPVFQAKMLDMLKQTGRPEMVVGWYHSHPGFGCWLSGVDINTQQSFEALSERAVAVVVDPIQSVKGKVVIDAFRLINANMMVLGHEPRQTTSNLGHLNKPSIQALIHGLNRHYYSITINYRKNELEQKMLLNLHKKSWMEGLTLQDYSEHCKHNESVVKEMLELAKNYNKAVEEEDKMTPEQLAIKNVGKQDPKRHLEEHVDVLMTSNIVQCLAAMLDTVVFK
Chain of RNA-editing ligase 1, mitochondrial (P86926 whole entry): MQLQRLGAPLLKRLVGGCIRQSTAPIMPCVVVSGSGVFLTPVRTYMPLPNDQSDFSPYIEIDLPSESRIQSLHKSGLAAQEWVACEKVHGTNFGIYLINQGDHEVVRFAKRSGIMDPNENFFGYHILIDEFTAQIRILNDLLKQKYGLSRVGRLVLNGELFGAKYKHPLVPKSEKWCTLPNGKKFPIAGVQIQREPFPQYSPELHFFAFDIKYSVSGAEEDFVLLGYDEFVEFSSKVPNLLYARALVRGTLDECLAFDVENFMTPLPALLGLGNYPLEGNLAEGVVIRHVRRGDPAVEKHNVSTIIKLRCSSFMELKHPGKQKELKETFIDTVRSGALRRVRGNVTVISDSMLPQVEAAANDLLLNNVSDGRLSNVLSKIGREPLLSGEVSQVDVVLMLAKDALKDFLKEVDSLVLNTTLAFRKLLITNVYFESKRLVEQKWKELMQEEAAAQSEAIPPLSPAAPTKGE
Chain of Glutathione-S-transferase (Q26513 whole entry): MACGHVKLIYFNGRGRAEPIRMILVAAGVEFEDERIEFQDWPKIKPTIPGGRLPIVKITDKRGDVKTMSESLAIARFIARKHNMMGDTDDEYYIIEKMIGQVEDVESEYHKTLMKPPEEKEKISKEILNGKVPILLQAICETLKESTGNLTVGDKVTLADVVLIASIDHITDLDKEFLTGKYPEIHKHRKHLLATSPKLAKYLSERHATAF
Chain of Induced myeloid leukemia cell differentiation protein Mcl-1 (Q07820 whole entry): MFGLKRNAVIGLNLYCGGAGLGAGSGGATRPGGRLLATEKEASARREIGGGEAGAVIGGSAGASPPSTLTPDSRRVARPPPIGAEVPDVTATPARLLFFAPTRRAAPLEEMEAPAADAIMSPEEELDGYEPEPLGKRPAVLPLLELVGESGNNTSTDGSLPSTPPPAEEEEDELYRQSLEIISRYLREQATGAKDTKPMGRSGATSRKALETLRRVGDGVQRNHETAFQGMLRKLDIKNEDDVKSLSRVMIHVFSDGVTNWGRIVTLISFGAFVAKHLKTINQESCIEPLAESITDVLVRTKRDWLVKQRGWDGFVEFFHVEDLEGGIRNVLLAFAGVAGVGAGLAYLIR
Chain of Nonstructural protein 1 (Q194T2 whole entry): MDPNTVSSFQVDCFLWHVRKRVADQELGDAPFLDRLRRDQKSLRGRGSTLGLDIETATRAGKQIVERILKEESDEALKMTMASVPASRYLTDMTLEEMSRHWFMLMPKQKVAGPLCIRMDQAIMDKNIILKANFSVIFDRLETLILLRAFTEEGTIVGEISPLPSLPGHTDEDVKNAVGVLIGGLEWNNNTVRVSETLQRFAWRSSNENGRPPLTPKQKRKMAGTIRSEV

Turning to `CCS(=O)(=O)C1=NN2C(=N)/C(=C\c3ccc(SCc4ccco4)o3)C(=O)N=C2S1`, the AC50 in assay [1] was 7.62 µM (active). Besides, the half-inhibitory concentration (IC50) was 132 µM (active) in assay [2]; 12 µM (active) in [3]; 24.2 µM (active) on Aminopeptidase N; 49.4 µM (active) in assay [4]; 4.49 µM (active) in assay [5]; 5.71 µM (active) in assay [6]. For the same compound, the results for the IC50 (at Prothrombin; in assay [7]) were 28.5 µM (active) and 3.96 µM (active), respectively.

As to `CCOC(=O)C(/C=N/c1cc(C)nn1-c1ccccc1)=C(/O)OCC`, the IC50 in [8] was 6.37 µM (active).

Turning to `CN(C)c1ccc(/N=C/C=C2/N(C)c3ccccc3C2(C)C)cc1`, the CC50 in assay [9] was 17.5 µM (active); in assay [12], 100 µM (active). Also, the half-maximal inhibitory concentration (IC50) in assay [10] was 44.9 µM (active); at Nonstructural protein 1, 16.1 µM (active); in assay [2], 20.6 µM (active). Besides, the EC50 was 39 µM (active) in [11], 39 µM (active) in assay [13] and > 100 µM (active) in assay [14].

Consider `N#C[C@@H]1[C@H](c2ccc(C3=CCCCC3)cc2)[C@@H](CO)N1C(=O)NC1CCCC1`, for which the AC50 in assay [15] is 9.32 µM (active); in assay [16], 0.549 µM (active); in assay [17], 0.42 µM (active); in [18], 0.399 µM (active); in [19] it was > 39 µM (inactive); in [20], 62.5 µM (active). Also, the AC50 in [21] is 0.409 µM (active).

With `COC(=O)C1=C(C)N(Cc2ccccc2C(F)(F)F)C(NCc2ccc(C(F)(F)F)cc2)=NC1c1ccccc1` (stereo unspecified), in [22], the IC50 was > 96.6 µM (inactive).
